Read-outs that look alike come from different tables or passages of the source. Where only a bound is given, the exact number is not on record here.

For one series, the target named is T1, P450 2A13 (Homo sapiens, UniProt Q16696).
T1 sequence (Q16696 with tags, fused parts or gaps limits assumed): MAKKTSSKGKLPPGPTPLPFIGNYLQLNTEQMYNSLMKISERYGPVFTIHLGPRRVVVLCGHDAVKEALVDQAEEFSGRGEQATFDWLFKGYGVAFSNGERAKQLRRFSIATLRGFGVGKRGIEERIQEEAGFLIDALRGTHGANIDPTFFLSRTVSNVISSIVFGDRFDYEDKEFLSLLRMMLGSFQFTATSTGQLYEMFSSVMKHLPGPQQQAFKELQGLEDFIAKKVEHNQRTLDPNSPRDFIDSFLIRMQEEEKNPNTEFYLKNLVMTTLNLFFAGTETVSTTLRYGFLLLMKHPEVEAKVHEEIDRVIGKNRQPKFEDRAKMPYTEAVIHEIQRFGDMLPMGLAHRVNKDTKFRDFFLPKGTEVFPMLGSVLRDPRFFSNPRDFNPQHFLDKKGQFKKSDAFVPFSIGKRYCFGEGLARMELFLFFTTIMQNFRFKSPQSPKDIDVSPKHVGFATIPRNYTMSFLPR
The series is described as follows: Spectral binding titration with purified P450 2A13.

Series [1] addresses T2, P450 2A6 (Homo sapiens, UniProt P11509).
T2 sequence (P11509 1-494): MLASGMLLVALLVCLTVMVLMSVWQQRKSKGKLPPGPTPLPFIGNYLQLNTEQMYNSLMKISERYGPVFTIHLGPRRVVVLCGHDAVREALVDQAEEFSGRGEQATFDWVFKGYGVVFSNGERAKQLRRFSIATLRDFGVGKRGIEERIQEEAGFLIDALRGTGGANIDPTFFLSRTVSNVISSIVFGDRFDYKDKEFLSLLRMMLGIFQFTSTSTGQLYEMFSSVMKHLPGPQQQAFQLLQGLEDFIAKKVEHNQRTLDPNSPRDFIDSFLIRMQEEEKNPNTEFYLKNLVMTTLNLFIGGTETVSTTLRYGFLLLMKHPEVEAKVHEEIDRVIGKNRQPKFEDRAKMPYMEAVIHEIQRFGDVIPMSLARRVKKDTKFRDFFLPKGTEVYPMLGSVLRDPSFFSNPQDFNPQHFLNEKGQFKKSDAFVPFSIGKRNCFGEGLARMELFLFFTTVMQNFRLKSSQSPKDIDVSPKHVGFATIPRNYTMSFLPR
The series is described as follows: Spectral binding titration with purified P450 2A6.

Series [2] addresses T3, P450 1B1 (Homo sapiens, UniProt Q16678, L432V).
T3 sequence (Q16678 1-543 L432V): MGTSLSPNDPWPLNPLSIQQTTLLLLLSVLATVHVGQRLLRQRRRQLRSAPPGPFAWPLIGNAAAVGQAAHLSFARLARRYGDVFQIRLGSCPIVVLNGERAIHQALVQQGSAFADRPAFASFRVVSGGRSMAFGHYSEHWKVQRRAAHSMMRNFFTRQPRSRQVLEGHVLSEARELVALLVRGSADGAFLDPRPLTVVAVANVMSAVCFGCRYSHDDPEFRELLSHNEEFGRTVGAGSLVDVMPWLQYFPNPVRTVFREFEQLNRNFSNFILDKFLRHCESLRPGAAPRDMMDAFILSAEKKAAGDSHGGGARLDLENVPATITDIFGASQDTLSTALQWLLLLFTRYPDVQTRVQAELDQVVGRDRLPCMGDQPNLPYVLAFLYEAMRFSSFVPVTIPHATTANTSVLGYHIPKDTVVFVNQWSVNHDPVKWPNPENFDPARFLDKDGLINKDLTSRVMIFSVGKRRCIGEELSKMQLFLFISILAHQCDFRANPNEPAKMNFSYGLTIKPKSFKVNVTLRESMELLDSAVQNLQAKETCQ
The series is described as follows: Spectral binding titration with purified P450 1B1.

For series [3], the target named is T2, P450 2A6. As to conditions: 10 nM P450, 2.5 µM procarcinogen, means ± range of duplicate experiments.
In series [4] the target is T3, P450 1B1. As to conditions: 10 nM P450, 2.5 µM procarcinogen, means ± range of duplicate experiments.
The next series addresses T4, human P450 2A13 (Homo sapiens, UniProt Q16696).
T4 sequence (Q16696 31-494 limits assumed): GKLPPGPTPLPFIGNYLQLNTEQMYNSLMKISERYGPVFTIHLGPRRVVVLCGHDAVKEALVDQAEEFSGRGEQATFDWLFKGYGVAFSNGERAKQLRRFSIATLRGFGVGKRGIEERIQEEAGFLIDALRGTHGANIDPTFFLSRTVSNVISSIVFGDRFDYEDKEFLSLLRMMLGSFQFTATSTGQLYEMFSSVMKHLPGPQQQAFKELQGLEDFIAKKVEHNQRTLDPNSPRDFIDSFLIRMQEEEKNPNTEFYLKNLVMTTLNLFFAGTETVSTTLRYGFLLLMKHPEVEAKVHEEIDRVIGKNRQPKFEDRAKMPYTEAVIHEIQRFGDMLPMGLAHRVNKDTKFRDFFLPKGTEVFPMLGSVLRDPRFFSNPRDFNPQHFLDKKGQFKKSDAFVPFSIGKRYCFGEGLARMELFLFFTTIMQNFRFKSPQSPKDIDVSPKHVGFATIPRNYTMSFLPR
As to conditions: 10 nM P450, 2.5 µM procarcinogen, means ± range of duplicate experiments.

Where [5] appears, read: P450 2A13, Type I spectra, ± SE.
Where [6] appears, read: P450 1B1, Reverse Type I spectra.
Setting [7] is: P450 1B1, Reverse Type I spectra, ± SE.

For `O=[N+]([O-])c1ccc2ccc3cccc4ccc1c2c34` [1-nitropyrene], the Kd at P450 2A13 is 0.23 ± 0.08 µM; on P450 2A6 [1], over 20 µM; at P450 1B1 [2] (human, pH 7.4) it was 1.4 ± 0.001 µM. The “ΔAmax/ Ks” value worked out at 0.24 on P450 2A13 (P450 2A13, Type I spectra) and 0.026 at P450 1B1 [2] (setting [6]). For the same molecule, the results for the ΔAmax on P450 2A13 (setting [5]) and at P450 1B1 [2] (setting [7]) were 0.055 ± 0.004 and 0.037 ± 0.001, respectively. For the same molecule, the “activation of procarcinogens umu gene expression” value (shortened to “activation”) at P450 2A6 [3], on P450 1B1 [4] and on human P450 2A13 was under 10 units/min/nmol P450 in each case.

With `Nc1ccc2cc3ccccc3cc2c1` [2-AA, 2-aminoanthracene], the Kd on P450 2A13 is over 20 µM; on P450 2A6 [1], over 20 µM; on P450 1B1 [2] it was 33 ± 36 µM. For the same molecule, the “ΔAmax/ Ks” value on P450 1B1 [2] (setting [6]) is reported as 0.0026. At P450 1B1 [2] (setting [7]), this molecule gave a ΔAmax of 0.085 ± 0.076. The results for the “activation” value at P450 2A6 [3], at P450 1B1 [4] and at human P450 2A13 were 1200 ± 89 units/min/nmol P450, 1900 ± 210 units/min/nmol P450 and 560 ± 40 units/min/nmol P450, respectively.

Consider `CC(=O)Nc1ccc2c(c1)Cc1ccccc1-2` [2-AAF, 2-acetamidofluorene], for which the Kd at P450 1B1 [2] came out at 20 ± 7.8 µM. The “ΔAmax/ Ks” value at P450 1B1 [2] (setting [6]) amounted to 0.0018. The ΔAmax at P450 1B1 [2] (setting [7]) was found to be 0.035 ± 0.009. Also, the “activation” value on P450 2A6 [3], on P450 1B1 [4] and on human P450 2A13 was under 10 units/min/nmol P450 each time.

Turning to `Nc1ccc2c(c1)Cc1ccccc1-2` [2-AF, 2-aminofluorene], the Kd on P450 2A13 was over 20 µM; on P450 2A6 [1], over 20 µM; at P450 1B1 [2], 4.6 ± 1.3 µM.

With `Cc1cc2ccccc2c2ccc3ccccc3c12` [5-methylchrysene], the Kd at P450 2A13 was over 20 µM; at P450 1B1 [2] it was 6.9 ± 2.4 µM. Also, the “ΔAmax/ Ks” value on P450 1B1 [2] (setting [6]) stood at 0.0064. The ΔAmax on P450 1B1 [2] (setting [7]) came to 0.044 ± 0.008.

For the molecule `Cc1cc2ccccc2c2ccc3c(c12)C=CC(O)C3O` (stereo not drawn) [5MeCh-1,2-diol, 1,2-dihydroxy-1,2-dihydro-5-methylchrysene], the Kd at P450 2A13 and on P450 1B1 [2] was over 20 µM each time. The “activation” value on P450 2A6 [3] is recorded as 52 ± 11 units/min/nmol P450; on P450 1B1 [4], 2600 ± 180 units/min/nmol P450; at human P450 2A13, 86 ± 15 units/min/nmol P450.

As to `Cc1c2c(c(C)c3ccccc13)C(O)C(O)c1ccccc1-2` (stereo not drawn) [7,12-DMBA-5,6-diol, 5,6-dihydroxy-5,6-dihydro-7,12-dimethylbenz[a]anthracene], the Kd at P450 1B1 [2] was found to be 38 ± 3.7 µM. Moreover, the “ΔAmax/ Ks” value on P450 1B1 [2] (setting [6]) was 0.0012. On P450 1B1 [2] (setting [7]), the ΔAmax was 0.044 ± 0.003.

Turning to `c1ccc2cc3c(ccc4ccccc43)cc2c1` [B[a]A, benz[a]anthracene], the Kd was over 20 µM at P450 2A13 (read-out: Ks, P450 2A13, Type I spectra, 1.0 µM P450, pH 7.4, ± SE) and over 20 µM at P450 1B1 [2] (read-out: Ks, P450 1B1, Reverse Type I spectra, 1.0 µM P450, pH 7.4, ± SE).

As to `c1ccc2c(c1)cc1ccc3cccc4ccc2c1c34` [B[a]P, benzo[a]pyrene], the Kd on P450 2A13, at P450 2A6 [1] and on P450 1B1 [2] was over 20 µM each time.

For the molecule `OC1c2cccc3ccc4c5ccccc5cc(c4c23)C1O` (stereo not drawn) [B[a]P-4,5-diol, 4,5-dihydroxy-4,5-dihydrobenzo[a]pyrene], the Kd at P450 1B1 [2] stood at 23 ± 10 µM.

On to `OC1C=Cc2c(ccc3ccc4ccccc4c23)C1O` (stereo not drawn) [B[c]Phe-3,4-diol, 3,4-dihydroxy-3,4-dihydrobenzo[c]phenanthrene], for which the Kd at P450 2A13 and on P450 1B1 [2] was over 20 µM in each case. The “activation” value at P450 2A6 [3] came out at 33 ± 10 units/min/nmol P450; at P450 1B1 [4], 140 ± 21 units/min/nmol P450; at human P450 2A13, 45 ± 8 units/min/nmol P450.

`OC1C=Cc2c(ccc3c4ccccc4c4ccccc4c23)C1O` (stereo not drawn) [B[g]C-11,12-diol, 11,12-dihydroxy-11,12-dihydrobenzo[g]chrysene]: the “activation” value was under 10 units/min/nmol P450 at P450 2A6 [3], 207 ± 25 units/min/nmol P450 at P450 1B1 [4] and under 10 units/min/nmol P450 at human P450 2A13.

`OC1C=C2c3ccccc3-c3cccc(c32)C1O` (stereo not drawn) [FA-2,3-diol, 2,3-dihydroxy-2,3-dihydrofluoranthene]: the Kd stood at 0.86 ± 0.16 µM at P450 2A13 and 7.4 ± 1.3 µM on P450 1B1 [2]. Also, the “ΔAmax/ Ks” value on P450 2A13 (P450 2A13, Type I spectra) was determined as 0.060; at P450 1B1 [2] (setting [6]), 0.0058. The ΔAmax at P450 2A13 (setting [5]) is recorded as 0.052 ± 0.003; at P450 1B1 [2] (setting [7]) it was 0.043 ± 0.003. The “activation” value on P450 2A6 [3] is 36 ± 8 units/min/nmol P450; at P450 1B1 [4], 30 ± 11 units/min/nmol P450; at human P450 2A13 it was 88 ± 13 units/min/nmol P450.

For the molecule `Cn1c(N)nc2c3cccnc3ccc21` [IQ, 2-amino-3-methylimiidazo[4,5-f]quinoline], the “activation” value worked out at 75 ± 11 units/min/nmol P450 on P450 2A6 [3], 220 ± 29 units/min/nmol P450 at P450 1B1 [4] and 430 ± 40 units/min/nmol P450 on human P450 2A13.

On P450 1B1 [2], `Cn1c(N)nc2ncc(-c3ccccc3)cc21` [PhIP, 2-amino-1-methyl-6-phenylimidazo[4,5-b]pyridine] yielded a Kd of over 20 µM. Also, the “activation” value at P450 2A6 [3], on P450 1B1 [4] and on human P450 2A13 was under 10 units/min/nmol P450 each time.

Turning to `OC1C=Cc2c(ccc3c2ccc2ccccc23)C1O` (stereo not drawn) [chrysene-1,2-diol, 1,2-dihydroxy-1,2-dihydrochrysene], the Kd on P450 2A13 and on P450 1B1 [2] was over 20 µM each time. The “activation” value at P450 2A6 [3] is recorded as under 10 units/min/nmol P450; on P450 1B1 [4], 220 ± 19 units/min/nmol P450; on human P450 2A13, under 10 units/min/nmol P450.

Turning to `c1ccc2c(c1)ccc1c3ccccc3ccc21` [chrysene], the Kd on P450 2A13 and at P450 1B1 [2] was over 20 µM each time.

aflatoxin B1 [AFB1]: the Kd at P450 2A13 (read-out: Ks, pH 7.4) is over 20 µM; on P450 2A6 [1] (read-out: Ks, pH 7.4), over 20 µM.

Source of the values: PMC3713097 (Chemical research in toxicology, 2013).
